Laboratory results published in patent US20040059104A1, “Nucleotide mimics and their prodrugs” (priority 2002, published 2004).
Like-named read-outs stand apart in the source and are kept apart here.

Key:
[1] = molecular target: Ribonucleotide Reductase (RNR R1/R2) (Escherichia coli, UniProt P00452); assay: Ribonucleotide Reductase inhibition assay (coupled NADPH oxidation); format: biochemical
Description: The assays employed to measure inhibition of Ribonucleotide Reductase (RNR) activity are described below. The effectiveness of the compounds of the present invention as inhibitors of RNR enzyme was determined using the following assays.
This assay was used to measure the ability of the nucleotide mimics of the present invention to inhibit the enzymatic reaction catalyzed by RNR enzyme. In the reduction of cytidine 5′-diphosphate (CDP) to 2′-deoxycytidine 5′-diphosphate (dCDP), stoichiometric amounts of oxidized thioredoxin are formed. This protein is reduced by NADPH in a reaction catalyzed by thioredoxin reductase. By coupling the two reactions, RNR activity was measured by spectrophotometric determination of NADPH oxidation at 340 nm using a UV/VIS spectrophotometer. […]
The standard RNR assay is performed in a 96-well plate (Corning). […] The oxidation of NADPH was monitored at 340 nm on a microplate spectrophotometer (Molecular Devices Corp, Sunnyvale, Calif.). […]
The percentage of inhibition was calculated according to the following equation: […]
Each inhibitor was titrated over an appropriate range of concentrations, and IC50 values were determined using the equation: […]

in vitro = settings: bovine, serum, Half-Life, Serum Half-Lives of Gemcitibine Diphosphate Mimics and Their Prodrugs
Staphylococcus aureus = assay: Antimicrobial assay, minimal inhibitory concentration; format: cell-based; settings: Staphylococcus aureus, read-out: S. aureus MIC
Procedure, shortened: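 E. coli and S. aureus grown overnight at 37° C were first screened by disc diffusion on Nutrient Broth agar lawns. MIC was then read after overnight incubation at 37° C as the lowest compound concentration giving no increase in absorbance at 600 nm.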

[2] = Mammalian cell growth inhibition assay (MTT cytotoxicity); format: cell-based, Human; settings: human; CCRF-CEM cells, 72 hr, MTT; read-out: Cytotoxicity IC50 (antiproliferative effect)
Description: (§1) The assays employed for determining the cytotoxicity of the nucleotide mimics of the present invention to mammalian cells are described below.
(§2) Human CCRF-CEM cells were obtained from American Tissue Culture Collection (ATCC) and grown according to ATCC specifications. […] CEM cells were grown at 37° C. in a 95% humidified environment and 5% CO2 atmosphere.
(§3) MTT is water soluble tetrazolin salt that is converted to an insoluble purple formazan by active mitochondrial dehydrogenases of living cells. […] Conversion of MTT into the insoluble formazan by non-treated control or treated cells was monitored at 540 nm.
(§4) CCRF-CEM cells (3×10^4) were plated in 96-well plates in RPMI media. The next day, cells were incubated with different concentrations (0-200 μM) of the nucleotide mimics of the present invention for 72 hr. Following treatment, MTT (2 mg/ml in PBS) dye was added to each well so that the final concentration was 0.5 mg/ml and then incubated for 4 hr at 37° C. Media and MTT dye were removed without disturbing the cells and 100% DMSO was added to dissolve the precipitate. After a 10 minute incubation at room temperature, the optical density values were measured at 540 nm, using the Spectra Max Plus plate reader. Survival was expressed as the percentage of viable cells in treated samples relative to non-treated control cells.

CCRF-CEM cells = assay: as above; format: cell-based, Human
Description: as §1, §2, §3, §4

Chain of Ribonucleotide Reductase (RNR R1/R2) (P69924 2-376): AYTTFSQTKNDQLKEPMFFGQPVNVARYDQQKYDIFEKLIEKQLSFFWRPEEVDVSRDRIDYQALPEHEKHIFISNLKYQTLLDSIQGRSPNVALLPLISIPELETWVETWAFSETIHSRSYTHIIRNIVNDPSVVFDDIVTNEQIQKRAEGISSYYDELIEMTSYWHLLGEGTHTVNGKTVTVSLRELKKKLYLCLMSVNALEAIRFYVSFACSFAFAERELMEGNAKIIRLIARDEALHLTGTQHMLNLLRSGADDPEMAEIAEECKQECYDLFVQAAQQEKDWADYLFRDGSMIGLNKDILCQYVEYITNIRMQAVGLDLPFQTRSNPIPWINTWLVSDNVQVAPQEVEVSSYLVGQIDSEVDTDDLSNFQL
Chain of Ribonucleotide Reductase (RNR R1/R2) (P00452 whole entry): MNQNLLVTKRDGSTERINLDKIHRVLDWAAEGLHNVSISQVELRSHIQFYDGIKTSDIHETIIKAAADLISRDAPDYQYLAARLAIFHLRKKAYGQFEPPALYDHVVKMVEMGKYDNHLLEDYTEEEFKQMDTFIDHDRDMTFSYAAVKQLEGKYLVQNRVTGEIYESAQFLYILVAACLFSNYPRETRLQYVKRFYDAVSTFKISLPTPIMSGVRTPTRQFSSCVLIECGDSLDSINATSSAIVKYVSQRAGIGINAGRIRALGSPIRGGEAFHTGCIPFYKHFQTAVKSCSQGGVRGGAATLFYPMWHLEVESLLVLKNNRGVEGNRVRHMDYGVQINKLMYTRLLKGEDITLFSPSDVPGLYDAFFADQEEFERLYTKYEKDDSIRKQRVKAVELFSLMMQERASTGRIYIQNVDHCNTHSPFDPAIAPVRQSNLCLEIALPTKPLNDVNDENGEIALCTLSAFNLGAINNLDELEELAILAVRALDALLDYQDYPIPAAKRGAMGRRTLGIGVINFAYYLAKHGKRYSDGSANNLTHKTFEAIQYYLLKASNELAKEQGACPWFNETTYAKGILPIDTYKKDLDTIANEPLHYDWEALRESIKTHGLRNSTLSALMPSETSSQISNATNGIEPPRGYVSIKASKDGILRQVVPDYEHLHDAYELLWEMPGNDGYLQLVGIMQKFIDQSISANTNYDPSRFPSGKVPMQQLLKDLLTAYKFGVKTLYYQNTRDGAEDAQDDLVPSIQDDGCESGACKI

Work on `Nc1ccn([C@@H]2O[C@H](COP(=O)(O)NP(=O)(O)O)[C@@H](O)/C2=C\F)c(=O)n1` [Compound 3, 2′-Deoxy-(E)-2′-fluoromethylenecytidine 5′-imidodiphosphate] yielded an IC50 ([1]; 3-minute inactivation, then assay with 1 mM CDP, read-out: IC50, Inhibition of Ribonucleotide Reductase by Nucleotide Mimics) of 8.9 µM.

For `Nc1ccn([C@@H]2O[C@H](COP(=O)(O)CP(=O)(O)O)[C@@H](O)C2(F)F)c(=O)n1` [Compound 5, 2′-Deoxy-2′,2′-difluorocytidine-5′-methylenediphosphonate], the half-life at 500 μM (in vitro) was > 48 h, the MIC (Staphylococcus aureus; overnight at 37° C., tested 0-200 μg/ml, NA = Not active) was > 200 mg/L and the MIC (Staphylococcus aureus; value in brackets beside the μg/ml value) was > 475 µM. It also gave an IC50 at 72 h [2] of 4.8 µM.

In the case of `Nc1ccn([C@@H]2O[C@H](COP(=O)(O)NP(=O)(O)O)[C@@H](O)C2(F)F)c(=O)n1` [Compound 6, 2′-Deoxy-2′,2′-difluorocytidine 5′-imidodiphosphate], the IC50 [1] is reported as 12.6 µM and the half-life at 500 μM (in vitro) is reported as 15 h.

In the case of `CC(C)(C)C(=O)SCCOP(=O)(CP(=O)(OCCSC(=O)C(C)(C)C)OCC1OC(n2ccc(N)nc2=O)C(F)(F)C1O)OCCSC(=O)C(C)(C)C` (stereo not drawn) [Compound 77, 2′-deoxy-2′,2′-difluorocytidine 5′-tri-O—(S-pivaloyl-2-thioethyl)-α,β-methylenediphosphonate], the IC50 (CCRF-CEM cells) is reported as 0.1 µM.

In the case of `Nc1ccn([C@@H]2O[C@H](CO)[C@@H](O)C2(F)F)c(=O)n1` [Gemcitabine, 2′-deoxy-2′,2′-difluorocytidine, reference compound], the IC50 at 72 h [2] is reported as 0.035 µM.
